# In patent publication US20090023687A1, “Method for Controlling Phytopathogenic Organisms” (SYNGENTA CROP PROTECTION, INC., priority 2005, published 2009):
# What was measured:
# Phakopsora pachyrhizi [1] = test: Application on whole plants: leaf disc test with Phakopsora pachyrhizi on glyphosate sensitive soybean (Example 5); format: in vivo
# Text: (§1) A synergistic effect exists whenever the action of an active ingredient combination is greater than the action expected from the effect of the individual components.
# (§2) The action to be expected (E) for a given active ingredient combination obeys the so-called COLBY formula and can be calculated as follows (COLBY, S. R. “Calculating synergistic and antagonistic responses of herbicide combination”. Weeds, Vol. 15, pages 20-22; 1967):
# (§3) ppm=milligrams of active ingredient (=a.i.) per litre of spray mixture X=% action by active ingredient I using p ppm of active ingredient Y=% action by active ingredient II using q ppm of active ingredient.
# (§4) According to Colby, the expected (additive) action of active ingredients I+II using p+q ppm of active ingredient is
# (§5) If the action actually observed (O) is greater than the expected action (E), then the action of the combination is superadditive, i.e. there is a synergistic effect.
# (§6) A series of leaf disc tests were conducted to show the effects of tank mixtures of glyphosate and pesticides or plant activators on Asian soybean rust. The soybean variety tested was brand Williams82 glyphosate sensitive soybean. The leaf source for the testing was the first trifoliate leaf. Six (6) repetitions for each formulation and at each rate were conducted. Treatment of whole plants with the recited active ingredients was conducted 4 weeks after planting. After application, leaf disks were cut and inoculated with Phakopsora pachyrhizi (Asian soybean rust (ASR)) one (1) day after treatment. Evaluation of the leaf was conducted ten (10) days after inoculation and the mean percent infestation of the six repetitions is reported in Tables 12-14.
# As glyphosate source Touchdown® HiTech or Zapp® QI was used. The fungicides were used as commercial formulations: Cantus® WG50 fungicide comprising boscalid (BASF AG), Quadris® SC250 fungicide and Bion® WG50 plant activator comprising acibenzolar-S-methyl. The rates of the active ingredients used in the tests are set in Tables 12-14 as g active ingredient (a.i.)/hectare (ha). The spray volume was 200 l/ha.
# Phakopsora pachyrhizi [2] = test: whole plant or invertebrate; format: in vivo; conditions: in Glycine max, foliar, read-out: % activity observed
# Text: as §1, §2, §3, §4, §5
# as §6, with “the ortho-substituted phenyl-amide (OPA) fungicides represented by structures F-5 and F-9” for “pesticides or plant activators”, “the leaf” for “whole plants”, “The leaves” for “After application, leaf disks”, “were” for “were cut and”, “3 and 4.” for “12-14.”
# The glyphosate source was Touchdown® HiTech herbicide (Syngenta Corp.), containing the potassium salt of glyphosate and no adjuvant system. The compound OPA F-5 used was a compound of formula F-5, wherein the ratio of racemic compounds of formula F-3 (syn) to racemic compounds of formula F-4 (anti) was 9:1. The compound OPA F-9 used was a compound of formula F-9, wherein the ratio of racemic compounds of formula F-7 (trans) to racemic compounds of formula F-8 (cis) was around 100:1. The fungicides used were EC100 formulations of OPA F-5 and OPA F-9 which are emulsion concentrates containing 100 ga.i./L. The rates of the active ingredients used in the tests are set in the table as mg active ingredient (a.i.)/L.
# [3] = Glyphosate TD HiTech SL523 200 g a.i./ha
# [4] = Glyphosate TD HiTech SL523 500 g a.i./ha
# [5] = Glyphosate TD HiTech SL523 600 g a.i./ha
smiles,measurement,setting,value
"O=C(O)CNCP(=O)(O)O [Glyphosate, glyphosate]",Activity observed %,Phakopsora pachyrhizi [1]; [3],7%
same,Leaf attack %,Phakopsora pachyrhizi [1]; [3],58%
same,Activity observed %,Phakopsora pachyrhizi [1]; [4],10%
same,Leaf attack %,Phakopsora pachyrhizi [1]; [4],56%
same,Activity observed %,Phakopsora pachyrhizi [1]; [5],19%
same,Leaf attack %,Phakopsora pachyrhizi [1]; [5],50%
same,inhibition at 2.5 µg/mL,Phakopsora pachyrhizi [2]; Glyphosate 2.5 mg a.i./L (Touchdown HiTech),0%
same,inhibition at 7.4 µg/mL,Phakopsora pachyrhizi [2]; Glyphosate 7.4 mg a.i./L (Touchdown HiTech),0%
same,inhibition at 22.2 µg/mL,Phakopsora pachyrhizi [2]; Glyphosate 22.2 mg a.i./L (Touchdown HiTech),14%
same,inhibition at 66.7 µg/mL,Phakopsora pachyrhizi [2]; Glyphosate 66.7 mg a.i./L (Touchdown HiTech),0%
same,inhibition at 200 µg/mL,Phakopsora pachyrhizi [2]; Glyphosate 200.0 mg a.i./L (Touchdown HiTech),0%
same,inhibition at 600 µg/mL,Phakopsora pachyrhizi [2]; Glyphosate 600 mg a.i./L (Touchdown HiTech),34%
